Assay [1] deals with Pseudomonas aeruginosa strain ATCC27853. The experiment in a line: Antimicrobial activity, MIC by broth microdilution. The assay is classed as cell-based. The conditions noted are these: ATCC27853, 18 h, cation-adjusted Mueller-Hinton broth, about 5×10^5 CFU/mL, 35° C., about 18 hours, read-out: MIC Pseudomonas aeruginosa ATCC27853. In a few lines: (§1)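 MIC read by eye as the lowest drug level lacking visible growth after roughly 18 h at 35° C. Cells from heart infusion agar, set to McFarland 0.5 and diluted, were inoculated at about 5×10^5 CFU/mL into cation-adjusted Mueller-Hinton broth with compound, per adapted CLSI microdilution.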
A general note: Dilution methods test growth across graded concentrations, often in twofold steps.

For assay [2], the system named is Klebsiella pneumoniae strain ATCC13883. Briefly: Antimicrobial activity, MIC by broth microdilution. It counts as cell-based. The note with it: ATCC13883, cation-adjusted Mueller-Hinton broth, about 5×10^5 CFU/mL, 35° C., about 18 hours, read-out: MIC Klebsiella pneumoniae ATCC13883. In a few lines:
as §1

In assay [3] the test system is Escherichia coli strain ATCC25922. Briefly: Antimicrobial activity, MIC by broth microdilution. The conditions noted are these: ATCC25922, 18 h, cation-adjusted Mueller-Hinton broth, about 5×10^5 CFU/mL, 35° C., about 18 hours, read-out: MIC Escherichia coli ATCC25922. It counts as cell-based. In a few lines:
as §1

Assay [4] has as its target T1, Escherichia coli LpxC enzyme (Escherichia coli, UniProt P0A725).
T1 construct: made in house; host or cells: Escherichia coli
T1 sequence (P0A725 1-305): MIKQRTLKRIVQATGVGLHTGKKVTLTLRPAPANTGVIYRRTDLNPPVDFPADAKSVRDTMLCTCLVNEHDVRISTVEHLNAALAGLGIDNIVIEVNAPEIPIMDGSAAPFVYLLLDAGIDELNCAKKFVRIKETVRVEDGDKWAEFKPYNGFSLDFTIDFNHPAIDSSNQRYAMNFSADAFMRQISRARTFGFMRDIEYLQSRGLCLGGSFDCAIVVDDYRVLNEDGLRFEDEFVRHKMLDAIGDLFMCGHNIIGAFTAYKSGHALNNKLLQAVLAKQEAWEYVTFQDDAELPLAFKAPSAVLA
The experiment in a line: Inhibitory activity on Escherichia coli LpxC enzyme (LCMS method). It counts as biochemical. An excerpt: Test Example 3 Evaluation of the Inhibitory Activity on Escherichia coli LpxC Enzyme (LCMS Method)
To assay the activity of Escherichia coli LpxC enzyme, LpxC was reacted with its substrate, UDP-3-O-(R-3-hydroxymyristoyl)-N-acetylglucosamine, and the amount of the reaction product was quantified by liquid chromatography tandem mass spectrometry.
Specifically, to 3.1 nmol/L Escherichia coli LpxC enzyme (as acquired by preparing chromosomal DNA from Escherichia coli, obtaining the Escherichia coli LpxC genes by PCR (polymerase chain reaction) using LpxC specific primer, and incorporating the genes into a vector, followed by expression using Escherichia coli), 20 μmol/L UDP-3-O-(R-3-hydroxymyristoyl)-N-acetylglucosamine (Alberta) was added, and the mixture was incubated at room temperature for 120 minutes. This reaction was performed in a 40 mmol/L-2-morpholinoethanesulfonic acid buffer solution (pH 6.5) containing 0.02% Brij 35, 25 nmol/L-zinc chloride, and 80 μmol/L-dithiothreitol. The reaction was terminated by the addition of acetonitrile containing 25 μmol/L-UDP-N-acetylglucosamine as an internal standard to the reaction mixture. Centrifugation was performed and the amount of the substrate and the reaction product in the supernatant was detected by liquid chromatography tandem mass spectrometry. An inhibition curve was obtained by performing the aforementioned reaction in the presence of various concentrations of test compounds. From this inhibition curve, the concentration of test compound at which the amount of the reaction product was suppressed by 50% (IC50 value) was determined, which was used as an index for the inhibitory activity on Escherichia coli LpxC enzyme.

Assay [5] deals with T1, Escherichia coli LpxC enzyme. Briefly: Inhibitory activity on Escherichia coli LpxC enzyme (fluorescamine method). The assay is classed as biochemical. The note with it: fluorescamine detection; 3.1 nmol/L enzyme, 20 μmol/L substrate, pH 6.5, 120 min; read-out: IC50 (inhibitory activity on Escherichia coli LpxC enzyme, Fluoresamine method). In a few lines:
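LpxC reacted with UDP-3-O-(R-3-hydroxymyristoyl)-N-acetylglucosamine; product amine quantified after fluorescamine stop and pH 8.0 phosphate buffer addition, at 390 nm/495 nm. Inhibition curve built from a range of test compound concentrations.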

The target of assay [6] is T2, Pseudomonas aeruginosa LpxC enzyme (Pseudomonas aeruginosa, UniProt P47205).
T2 construct: made in house; host or cells: Escherichia coli
T2 sequence (P47205 1-303): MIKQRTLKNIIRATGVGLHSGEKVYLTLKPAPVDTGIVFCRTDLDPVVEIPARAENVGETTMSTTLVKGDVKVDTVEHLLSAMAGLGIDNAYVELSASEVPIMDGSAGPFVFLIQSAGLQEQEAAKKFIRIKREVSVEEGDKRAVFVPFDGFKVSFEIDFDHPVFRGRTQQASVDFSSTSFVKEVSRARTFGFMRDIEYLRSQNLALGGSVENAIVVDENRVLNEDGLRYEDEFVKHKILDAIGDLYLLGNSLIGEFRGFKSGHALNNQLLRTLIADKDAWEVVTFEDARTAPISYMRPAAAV
The experiment in a line: Inhibitory activity on Pseudomonas aeruginosa LpxC enzyme (fluorescamine method). The note with it: fluorescamine detection; 3.6 nmol/L enzyme, 20 μmol/L substrate, pH 8.0, 60 min. It counts as biochemical. An excerpt: Test Example 1 Evaluation of the Inhibitory Activity on Pseudomonas aeruginosa LpxC Enzyme (Fluoresamine Method)
To assay the activity of Pseudomonas aeruginosa LpxC enzyme, LpxC was reacted with its substrate, UDP-3-O-(R-3-hydroxydecanoyl)-N-acetylglucosamine, and the amount of the reaction product was quantified by the amino groups present in the product.
Specifically, to 3.6 nmol/L Pseudomonas aeruginosa LpxC enzyme (as acquired by preparing chromosomal DNA from Pseudomonas aeruginosa, obtaining the Pseudomonas aeruginosa LpxC genes by PCR (polymerase chain reaction) using LpxC specific primer, and incorporating the genes into a vector, followed by expression using Escherichia coli), 20 μmol/L UDP-3-O-(R-3-hydroxydecanoyl)-N-acetylglucosamine (Carbosynth) was added, and the mixture was incubated at room temperature for 60 minutes. This reaction was performed in a 40 mmol/L-HEPES buffer solution (pH 8.0) containing 0.02% Brij 35 and 25 nmol/L-zinc chloride. The reaction was terminated by the addition of 1.0 mg/mL-fluorescamine dissolved in a solvent obtained by mixing an equal amount of acetonitrile and dimethylformamide with the reaction mixture, and then, a 0.2 mol/L-sodium phosphate buffer solution (pH 8.0) was added thereto, and the amount of the reaction product was detected at an excitation wavelength/fluorescence wavelength=390 nm/495 nm. An inhibition curve was obtained by performing the aforementioned reaction in the presence of various concentrations of test compounds. From this inhibition curve, the concentration of test compound at which the amount of the reaction product was suppressed by 50% (IC50 value) was determined, which was used as an index for the inhibitory activity on Pseudomonas aeruginosa LpxC enzyme.

[7] abbreviates: LC-MS/MS detection, 3.1 nmol/L enzyme, 20 μmol/L substrate, pH 6.5, 120 min, read-out: IC50 (inhibitory activity on Escherichia coli LpxC enzyme, LCMS method).

≈ marks a conversion by molar mass, not a printed value. Some results are limits rather than exact numbers.

Usually MIC stands for the lowest concentration found to suppress growth. As usually defined, the IC50 is the point on the concentration scale where inhibition reaches its midpoint. With `Cc1cnc([C@H](C)O)n1Cc1cc(-c2ccc(C#CC3(N)CC3)cc2)on1` [Compound 64, (1S)-1-{1-[(5-{4-[(1-Aminocyclopropyl)ethynyl]phenyl}-1,2-oxazol-3-yl)methyl]-5-methyl-1H-imidazol-2-yl}ethan-1-ol], the MIC was greater than 128 mg/L in assay [1], 4 mg/L (≈ 11 µM) in assay [2] and 2 mg/L (≈ 5.52 µM) in assay [3]. The same compound came in with a half-maximal inhibitory concentration (IC50) in assay [4] of 0.176 µM.

In the case of `C[C@H](O)c1nccn1Cc1cc(-c2ccc(C#CC3CC(N)(C(N)=O)C3)cc2)on1` (stereo partly drawn) [Compound 25, 1-Amino-3-({4-[3-({2-[(1S)-1-hydroxyethyl]-1H-imidazol-1-yl}methyl)-1,2-oxazol-5-yl]phenyl}ethynyl)cyclobutane-1-carboxamide], the results for the MIC in assay [1], in assay [2] and in assay [3] were 32 mg/L (≈ 78.9 µM), 8 mg/L (≈ 19.7 µM) and 2 mg/L (≈ 4.93 µM), respectively. Further, the IC50 in assay [4] (setting [7]) came to 0.0522 µM.

`C[C@H](O)c1nccn1Cc1cc(-c2ccc(C#C[C@@H]3[C@H]4CN(C(=O)CCN)C[C@@H]34)cc2)on1` [Compound 61, 3-Amino-1-[(1R,5S,6s)-6-({4-[3-({2-[(1S)-1-hydroxyethyl]-1H-imidazol-1-yl}methyl)-1,2-oxazol-5-yl]phenyl}ethynyl)-3-azabicyclo[3.1.0]hexan-3-yl]propan-1-one]: the MIC turned out to be 4 mg/L (≈ 8.98 µM) in assay [1], 16 mg/L (≈ 35.9 µM) in assay [2] and 8 mg/L (≈ 18 µM) in assay [3]. For the same compound, the IC50 in assay [4] (setting [7]) was less than 0.037 µM.

In the case of `C[C@H](O)c1nccn1Cc1cc(-c2ccc(C#CC34CC(N)(C3)C4)cc2)no1` [Compound 28, (1S)-1-{1-[(3-(4-[(3-aminobicyclo[1.1.1]pentane-1-yl)ethynyl]phenyl}-1,2-oxazol-5-yl)methyl]-1H-imidazol-2-yl}ethan-1-ol], the minimum inhibitory concentration (MIC) in assay [1] was 64 mg/L (≈ 171 µM); in assay [2], 2 mg/L (≈ 5.34 µM); in assay [3] it was 0.5 mg/L (≈ 1.34 µM). In addition, the IC50 in assay [4] (setting [7]) worked out at 0.0646 µM.

On to `C[C@H](O)c1nccn1Cc1cc(-c2ccc(C#CC(C)(C)N)cc2)on1` [Compound 33], for which the figures for the minimal inhibitory concentration (MIC) in assay [1], in assay [2] and in assay [3] were greater than 128 mg/L, 64 mg/L (≈ 183 µM) and 32 mg/L (≈ 91.3 µM), respectively. Also, the IC50 in assay [4] (setting [7]) was greater than 3 µM.

With `C[C@H](O)c1nccn1[C@H](CN)c1cc(-c2ccc(C#CC34CC(N)(C3)C4)cc2)on1` [Compound 20, (1S)-1-{1-[(1R)-2-amino-1-(5-{4-[(3-aminobicyclo[1.1.1]pentan-1-yl)ethynyl]phenyl}-1,2-oxazol-3-yl)ethyl]-1H-imidazol-2-yl}ethan-1-ol], the minimum inhibitory concentration (MIC) in assay [1] worked out at 4 mg/L (≈ 9.91 µM); in assay [2], 2 mg/L (≈ 4.96 µM); in assay [3], 0.5 mg/L (≈ 1.24 µM). Also, the half-maximal inhibitory concentration (IC50) in assay [4] (setting [7]) was 0.279 µM.

`C[C@H](O)c1nccn1Cc1cc(-c2ccc(C#CC3(N)CC3)cc2)no1` [Compound 27, (1S)-1-{1-[(3-(4-[(1-aminocyclopropyl)ethynyl]phenyl}-1,2-oxazol-5-yl)methyl]-1H-imidazol-2-yl}ethan-1-ol]: the minimal inhibitory concentration (MIC) is greater than 128 mg/L in assay [1], 4 mg/L (≈ 11.5 µM) in assay [2] and 1 mg/L (≈ 2.87 µM) in assay [3]. For the same compound, the IC50 in assay [4] (setting [7]) stood at 0.193 µM.

On to `C[C@H](O)c1nccn1Cc1cc(-c2ccc(C#CC3CC(N)(C#N)C3)cc2)on1` (stereo partly drawn) [Compound 24, 1-Amino-3-({4-[3-({2-[(1S)-1-hydroxyethyl]-1H-imidazol-1-yl}methyl)-1,2-oxazol-5-yl]phenyl}ethynyl)cyclobutane-1-carbonitrile], for which the minimum inhibitory concentration (MIC) in assay [1] stood at 128 mg/L (≈ 330 µM); in assay [2], 4 mg/L (≈ 10.3 µM); in assay [3], 2 mg/L (≈ 5.16 µM). For the same compound, the half-maximal inhibitory concentration (IC50) in assay [4] (setting [7]) is less than 0.037 µM.

In the case of `C[C@H](O)c1nccn1Cc1cc(-c2ccc(C#CC3(N)CCOCC3)cc2)on1` [Compound 29, (1S)-1-{1-[(5-{4-[(4-aminooxan-4-yl)ethynyl]phenyl}-1,2-oxazol-3-yl)methyl]-1H-imidazol-2-yl}ethan-1-ol], the MIC was greater than 128 mg/L in assay [1], 128 mg/L (≈ 326 µM) in assay [2] and 64 mg/L (≈ 163 µM) in assay [3]. Also, the half-inhibitory concentration (IC50) in assay [4] (setting [7]) is greater than 3 µM.

As to `C[C@H](O)c1nccn1[C@H](CN)c1cc(-c2ccc(C#CC3(N)CC3)cc2)on1` [Compound 21, (1S)-1-{1-[(1R)-2-amino-1-(5-(4-[(1-aminocyclopropyl)ethynyl]phenyl}-1,2-oxazol-3-yl)ethyl]-1H-imidazol-2-yl}ethan-1-ol], the MIC in assay [1] stood at 32 mg/L (≈ 84.8 µM); in assay [2] it was 8 mg/L (≈ 21.2 µM); in assay [3] it was 2 mg/L (≈ 5.3 µM). Further, in assay [4] (setting [7]), the 50% inhibitory concentration (IC50) came to 0.282 µM.

For `C[C@H](O)c1nccn1[C@H](CN)c1cc(-c2ccc(C#C[C@@H]3[C@H]4CN(CCO)C[C@@H]34)cc2)on1` [Compound 22, (1S)-1-(1-{(1R)-2-Amino-1-[5-(4-{[(1R,5S,6s)-3-(2-hydroxyethyl)-3-azabicyclo[3.1.0]hexan-6-yl]ethynyl}phenyl)-1,2-oxazol-3-yl]ethyl}-1H-imidazol-2-yl)ethan-1-ol], the MIC in assay [1] amounted to 2 mg/L (≈ 4.47 µM); in assay [2] it was 4 mg/L (≈ 8.94 µM); in assay [3], 2 mg/L (≈ 4.47 µM). The IC50 in assay [4] (setting [7]) is 0.655 µM.

For the compound `C[C@H](O)c1nccn1Cc1cc(-c2ccc(C#C[C@@H]3[C@H]4CN(C(=O)CC(C)(C)N)C[C@@H]34)cc2)on1` [Compound 62, 3-amino-1-[(1R,5S,6s)-6-((4-[3-((2-[(1S)-1-hydroxyethyl]-1H-imidazol-1-yl}methyl)-1,2-oxazol-5-yl]phenyl)ethynyl)-3-azabicyclo[3.1.0]hexan-3-yl]-3-methylbutan-1-one], the MIC in assay [1] is 8 mg/L (≈ 16.9 µM); in assay [2], 32 mg/L (≈ 67.6 µM); in assay [3], 8 mg/L (≈ 16.9 µM). In addition, in assay [4] (setting [7]), the 50% inhibitory concentration (IC50) was less than 0.037 µM.

On to `C[C@H](O)c1nccn1Cc1cc(-c2ccc(C#CCCCO)cc2)on1` [Compound 1, 5-{4-[3-({2-[(1S)-1-Hydroxyethyl]-1H-imidazol-1-yl}methyl)-1,2-oxazol-5-yl]phenyl}pent-4-yn-1-ol], for which the minimal inhibitory concentration (MIC) turned out to be 64 mg/L (≈ 182 µM) in assay [1], 2 mg/L (≈ 5.69 µM) in assay [2] and 1 mg/L (≈ 2.85 µM) in assay [3]. For the same compound, the IC50 was 0.051 µM in assay [5] and 0.0132 µM in assay [6].

For the origin of these results see patent US20220002279A1, “NOVEL IMIDAZOLE DERIVATIVE” (priority 2018, published 2022).
